Results: ChEMBL document CHEMBL1139389, “Discovery of the Poly(ADP-ribose) polymerase (PARP) inhibitor 2-[(R)-2-methylpyrrolidin-2-yl]-1H-benzimidazole-4-carboxamide (ABT-888) for the treatment of cancer” (J Med Chem, 2009)

What was measured:
[1] = Volume of distribution at steady state in Sprague-Dawley rat at 5 mg/kg; assay type: ADME, organism-based; set-up: dose 5 mg/kg; details: in vivo, read-out: Vdss
[2] = Clearance in Sprague-Dawley rat at 5 mg/kg; assay type: ADME, organism-based; set-up: dose 5 mg/kg; details: in vivo
[3] = Oral bioavailability in Beagle dog at 2.5 mg/kg; assay type: ADME, organism-based, Canis lupus familiaris; details: in vivo
[4] = Half life in Beagle dog at 2.5 mg/kg, iv; assay type: ADME, organism-based, Canis lupus familiaris; set-up: dose 2.5 mg/kg, route intravenous; details: in vivo
[5] = AUC in Beagle dog at 2.5 mg/kg, po; assay type: ADME, organism-based, Canis lupus familiaris; set-up: dose 2.5 mg/kg, route oral; details: plasma
[6] = Cmax in Beagle dog at 2.5 mg/kg, po; assay type: ADME, organism-based, Canis lupus familiaris; set-up: dose 2.5 mg/kg, route oral; details: in vivo
[7] = Volume of distribution at steady state in Beagle dog at 2.5 mg/kg; assay type: ADME, organism-based, Canis lupus familiaris; set-up: dose 2.5 mg/kg; details: in vivo, read-out: Vdss
[8] = Clearance in Beagle dog at 2.5 mg/kg; assay type: ADME, organism-based, Canis lupus familiaris; set-up: dose 2.5 mg/kg; details: in vivo
[9] = Oral bioavailability in cynomolgus monkey at 2.5 mg/kg; assay type: ADME, organism-based, Macaca fascicularis; details: in vivo
[10] = Half life in cynomolgus monkey at 2.5 mg/kg, iv; assay type: ADME, organism-based, Macaca fascicularis; set-up: dose 2.5 mg/kg, route intravenous; details: in vivo
[11] = AUC in cynomolgus monkey at 2.5 mg/kg, po; assay type: ADME, organism-based, Macaca fascicularis; set-up: dose 2.5 mg/kg, route oral; details: plasma
[12] = Cmax in cynomolgus monkey at 2.5 mg/kg, po; assay type: ADME, organism-based, Macaca fascicularis; set-up: dose 2.5 mg/kg, route oral; details: in vivo
[13] = Volume of distribution at steady state in cynomolgus monkey at 2.5 mg/kg; assay type: ADME, organism-based, Macaca fascicularis; set-up: dose 2.5 mg/kg; details: in vivo, read-out: Vdss
[14] = Clearance in cynomolgus monkey at 2.5 mg/kg; assay type: ADME, organism-based, Macaca fascicularis; set-up: dose 2.5 mg/kg; details: in vivo
[15] = Water solubility of compound at physiological pH; assay type: physicochemical
Cytochrome P450 1A2 = target: T1, Cytochrome P450 1A2 (Homo sapiens, UniProt P05177); test: Inhibition of CYP1A2 in human liver microsomes; assay type: ADME, Microsome
T1 sequence (P05177 whole entry): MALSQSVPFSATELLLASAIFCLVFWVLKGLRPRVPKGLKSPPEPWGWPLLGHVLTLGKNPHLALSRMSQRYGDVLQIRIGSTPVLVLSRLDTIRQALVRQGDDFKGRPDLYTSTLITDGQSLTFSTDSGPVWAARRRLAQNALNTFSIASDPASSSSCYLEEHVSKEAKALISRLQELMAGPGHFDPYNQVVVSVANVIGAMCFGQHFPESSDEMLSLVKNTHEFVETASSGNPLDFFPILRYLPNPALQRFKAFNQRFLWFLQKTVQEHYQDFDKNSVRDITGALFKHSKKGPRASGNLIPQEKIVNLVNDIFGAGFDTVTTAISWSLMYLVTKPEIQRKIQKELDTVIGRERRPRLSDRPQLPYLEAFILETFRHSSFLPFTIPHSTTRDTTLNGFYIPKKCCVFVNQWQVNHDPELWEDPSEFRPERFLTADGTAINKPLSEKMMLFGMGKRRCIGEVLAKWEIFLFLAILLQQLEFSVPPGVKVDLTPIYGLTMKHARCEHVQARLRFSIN

Cytochrome P450 2A6 = target: T2, Cytochrome P450 2A6 (Homo sapiens, UniProt P11509); test: Inhibition of CYP2A6 in human liver microsomes; assay type: ADME, Microsome
T2 sequence (P11509 whole entry): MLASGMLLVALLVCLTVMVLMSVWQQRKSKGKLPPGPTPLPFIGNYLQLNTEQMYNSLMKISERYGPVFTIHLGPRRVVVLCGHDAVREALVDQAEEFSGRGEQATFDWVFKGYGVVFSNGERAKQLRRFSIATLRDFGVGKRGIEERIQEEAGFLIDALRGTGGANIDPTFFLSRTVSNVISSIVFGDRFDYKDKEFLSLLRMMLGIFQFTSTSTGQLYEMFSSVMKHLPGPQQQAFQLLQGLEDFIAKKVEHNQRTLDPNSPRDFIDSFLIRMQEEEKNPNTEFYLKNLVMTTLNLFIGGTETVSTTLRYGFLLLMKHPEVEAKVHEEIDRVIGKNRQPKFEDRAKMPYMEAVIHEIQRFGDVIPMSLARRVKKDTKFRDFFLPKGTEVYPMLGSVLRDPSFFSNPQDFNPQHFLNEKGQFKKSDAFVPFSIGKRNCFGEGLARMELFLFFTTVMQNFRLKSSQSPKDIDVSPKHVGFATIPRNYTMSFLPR

Cytochrome P450 2D6 = Cytochrome P450 2D6 (Homo sapiens, UniProt P10635); test: Inhibition of CYP2D6 in human liver microsomes; assay type: ADME, Microsome
Cytochrome P450 2D6, sequence (P10635 whole entry): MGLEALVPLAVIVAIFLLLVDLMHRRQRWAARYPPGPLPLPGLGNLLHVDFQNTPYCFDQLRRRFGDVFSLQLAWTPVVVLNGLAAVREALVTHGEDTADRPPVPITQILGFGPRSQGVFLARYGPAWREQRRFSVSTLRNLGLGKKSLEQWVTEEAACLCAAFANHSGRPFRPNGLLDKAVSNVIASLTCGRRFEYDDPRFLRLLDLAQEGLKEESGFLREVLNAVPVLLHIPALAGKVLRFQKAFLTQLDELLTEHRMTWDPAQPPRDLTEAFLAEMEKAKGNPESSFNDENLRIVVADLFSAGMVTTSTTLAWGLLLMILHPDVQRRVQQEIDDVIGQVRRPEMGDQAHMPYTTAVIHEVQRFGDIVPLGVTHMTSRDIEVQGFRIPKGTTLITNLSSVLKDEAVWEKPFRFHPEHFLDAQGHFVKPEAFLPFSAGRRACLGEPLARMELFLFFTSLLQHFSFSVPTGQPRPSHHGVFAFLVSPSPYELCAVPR

Cytochrome P450 2C9 = Cytochrome P450 2C9 (Homo sapiens, UniProt P11712); test: Inhibition of CYP2C9 in human liver microsomes; assay type: ADME, Microsome
Cytochrome P450 2C9, sequence (P11712 whole entry): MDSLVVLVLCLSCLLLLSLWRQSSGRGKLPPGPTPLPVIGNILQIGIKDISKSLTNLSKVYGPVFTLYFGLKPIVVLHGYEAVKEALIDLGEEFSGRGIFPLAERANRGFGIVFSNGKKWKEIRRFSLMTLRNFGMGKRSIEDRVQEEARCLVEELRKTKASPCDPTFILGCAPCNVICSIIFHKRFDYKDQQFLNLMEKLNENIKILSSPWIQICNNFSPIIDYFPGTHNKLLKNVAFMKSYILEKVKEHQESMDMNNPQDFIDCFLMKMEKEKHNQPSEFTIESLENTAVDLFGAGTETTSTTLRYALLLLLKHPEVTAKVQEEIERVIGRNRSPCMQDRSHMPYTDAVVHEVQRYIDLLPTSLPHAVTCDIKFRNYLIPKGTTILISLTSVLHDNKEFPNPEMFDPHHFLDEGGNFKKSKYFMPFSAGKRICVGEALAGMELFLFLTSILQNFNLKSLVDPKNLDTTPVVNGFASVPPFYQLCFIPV

Cytochrome P450 2C19 = Cytochrome P450 2C19 (Homo sapiens, UniProt P33261); test: Inhibition of CYP2C19 in human liver microsomes; assay type: ADME, Microsome
Cytochrome P450 2C19, sequence (P33261 whole entry): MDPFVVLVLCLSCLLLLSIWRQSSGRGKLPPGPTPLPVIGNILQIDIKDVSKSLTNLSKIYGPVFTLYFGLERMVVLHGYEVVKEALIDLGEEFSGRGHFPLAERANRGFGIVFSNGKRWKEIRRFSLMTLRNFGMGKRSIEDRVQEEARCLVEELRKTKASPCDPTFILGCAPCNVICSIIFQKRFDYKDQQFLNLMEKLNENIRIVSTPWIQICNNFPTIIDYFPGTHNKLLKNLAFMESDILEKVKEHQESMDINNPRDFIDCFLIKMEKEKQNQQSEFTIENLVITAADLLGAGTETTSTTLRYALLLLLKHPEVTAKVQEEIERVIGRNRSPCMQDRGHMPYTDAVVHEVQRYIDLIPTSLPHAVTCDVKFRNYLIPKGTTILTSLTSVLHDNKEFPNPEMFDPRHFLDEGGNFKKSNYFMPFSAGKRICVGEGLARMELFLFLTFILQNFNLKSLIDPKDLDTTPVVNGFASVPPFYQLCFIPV

Cytochrome P450 2E1 = Cytochrome P450 2E1 (Homo sapiens, UniProt P05181); test: Inhibition of CYP2E1 in human liver microsomes; assay type: ADME, Microsome
Cytochrome P450 2E1, sequence (P05181 whole entry): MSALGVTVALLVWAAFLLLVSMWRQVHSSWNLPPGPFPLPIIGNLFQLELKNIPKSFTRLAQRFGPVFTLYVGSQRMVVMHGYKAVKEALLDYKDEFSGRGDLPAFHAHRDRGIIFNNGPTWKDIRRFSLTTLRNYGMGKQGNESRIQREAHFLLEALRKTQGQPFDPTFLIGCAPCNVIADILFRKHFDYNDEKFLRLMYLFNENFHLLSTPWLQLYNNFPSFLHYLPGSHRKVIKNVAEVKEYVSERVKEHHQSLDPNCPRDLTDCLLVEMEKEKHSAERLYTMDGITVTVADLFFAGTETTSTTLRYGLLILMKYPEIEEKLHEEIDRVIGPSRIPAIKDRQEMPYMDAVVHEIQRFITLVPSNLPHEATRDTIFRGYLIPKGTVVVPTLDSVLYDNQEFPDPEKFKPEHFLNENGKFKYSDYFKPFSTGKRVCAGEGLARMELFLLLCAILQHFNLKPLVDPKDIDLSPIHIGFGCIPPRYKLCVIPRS

Cytochrome P450 3A4 = Cytochrome P450 3A4 (Homo sapiens, UniProt P08684); test: Inhibition of CYP3A4 in human liver microsomes; assay type: ADME, Microsome
Cytochrome P450 3A4, sequence (P08684 whole entry): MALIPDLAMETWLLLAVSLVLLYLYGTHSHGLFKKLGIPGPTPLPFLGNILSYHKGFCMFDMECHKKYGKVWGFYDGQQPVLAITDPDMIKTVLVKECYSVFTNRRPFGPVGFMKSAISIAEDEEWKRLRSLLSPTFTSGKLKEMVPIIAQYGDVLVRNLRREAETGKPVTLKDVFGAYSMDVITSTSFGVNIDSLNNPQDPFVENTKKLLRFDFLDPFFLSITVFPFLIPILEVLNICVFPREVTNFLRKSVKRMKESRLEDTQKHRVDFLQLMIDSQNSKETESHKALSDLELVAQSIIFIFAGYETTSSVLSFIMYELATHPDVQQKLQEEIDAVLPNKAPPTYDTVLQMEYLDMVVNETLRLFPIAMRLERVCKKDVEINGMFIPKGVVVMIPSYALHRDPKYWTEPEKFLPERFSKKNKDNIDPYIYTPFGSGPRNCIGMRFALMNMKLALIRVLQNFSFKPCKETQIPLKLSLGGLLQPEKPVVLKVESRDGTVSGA

[16] = Protein binding in human plasma at 5 uM; assay type: ADME, cell-free; details: read-out: PPB (converted)
[17] = Protein binding in CD1 mouse plasma at 5 uM; assay type: ADME, cell-free; details: read-out: PPB (converted)
[18] = Protein binding in Sprague-Dawley rat plasma at 5 uM; assay type: ADME, cell-free; details: read-out: PPB (converted)

`C[C@]1(c2nc3c(C(N)=O)cccc3[nH]2)CCCN1` [VELIPARIB] showed a Vd [1] of 3.6 L/kg, a clearance [2] of 33.3 mL/min/kg and a bioavailability [3] of 72%. The half-life [4] was 2.7 h, the AUC [5] was 3200 ng·h/mL and the Cmax [6] was 800 ng/mL. The Vd [7] was 2.2 L/kg, the clearance [8] was 10 mL/min/kg and the bioavailability [9] was 56%. It also gave a half-life [10] of 1.9 h, an AUC [11] of 1300 ng·h/mL and a Cmax [12] of 300 ng/mL. It also gave a Vd [13] of 3.1 L/kg, a clearance [14] of 18.3 mL/min/kg and a solubility [15] of over 5000 µg/mL. For the same compound, the Activity (Cytochrome P450 1A2) was “Not Active”, the Activity (Cytochrome P450 2A6) was “Not Active” and the Activity (Cytochrome P450 2D6) was “Not Active”. For the same compound, the Activity (Cytochrome P450 2C9) was “Not Active”, the Activity (Cytochrome P450 2C19) was “Not Active” and the Activity (Cytochrome P450 2E1) was “Not Active”. For the same compound, the Activity (Cytochrome P450 3A4) was “Not Active”, the fraction unbound at 5 µM [16] was 0.59 and the fraction unbound at 5 µM [17] was 0.59. The fraction unbound at 5 µM [18] was 0.59.
